# Measurements published in US6197225A, “Chromene compound” (Tokuyama Corporation, priority 1997, dated 2001).
# Experiment: Photochromic properties of cast polymer (2 mm thick) under xenon lamp irradiation for 120 seconds
# Format: physicochemical
# Details: chromene composition, or other chromene C1-C4, 0.04% by weight in polymer; Table 6
# Description: 0.04% by weight of the chromene compound obtained in Example 1 was added to 70 parts of 4G, 15 parts of 3G, 10 parts of GMA, 5 parts of HEMA and 1 part of perbutyl ND, and was mixed together to a sufficient degree. The mixture solution was poured into a mold constituted by a glass plate and a gasket of an ethylene/vinyl acetate copolymer, and was cast-polymerized. By using an air furnace, the polymerization was conducted in a manner that the temperature was gradually raised from 30° C. to 90° C. over a period of 18 hours, and was held at 90° C. for 2 hours. After the polymerization, the polymer was taken out from the glass mold.
# By using a xenon lamp, L-2480 (300 W) SHL-100, manufactured by Hamamatsu Photonics Co., the obtained polymer (2 mm thick) was irradiated with a beam of an intensity of 365 nm=2.4 mW/cm^2 and 245 nm=24 μW/cm^2 on the surface of the polymer for 120 seconds through an aero-mass filter (manufactured by Corning Co.) at 20° C.±1° C. to develop color and to measure the photochromic properties which were expressed in the following manner.
# 1 Maximum absorption wavelength (λmax): λmax of the polymer after it has developed color was found by using a spectrophotometer (instantaneous multi-channel photo-detector, MCPD1000) manufactured by Otsuka Denshi Kogyo Co.
# 2 Initial color ( ε(0)): Absorbency of the polymer in a non-irradiated state at a wavelength same as the maximum absorption wavelength of when it is irradiated with light.
# 3 Color density (-)=ε(120)-ε(0). ε(120): Absorbency of the polymer at a maximum absorption wavelength after it was irradiated for 120 seconds under the above-mentioned conditions.
# 4 Color-developing sensitivity (-/min.)=Saturated color density/xenon irradiation time.
# Rate of increase in the color density per a unit time until the color density is saturated.
# 5 Color fading rate [t1/2 (min.)]=time required until the absorbency of the polymer drops down to one-half of [ε(120)-ε(0)] after irradiated for 120 seconds.
# (§1) Photochromic polymers were prepared in the same manner as in Example 42 but using the chromene compounds obtained in Examples 2 to 41, and their maximum absorption wavelengths, color densities, fading rates, changes in the coloring degrees and durabilitys were measured.
# (§2) For the purpose of comparison, furthermore, the compounds represented by the following formulas (a), (b), (c), (d), (e) and (f) were measured for their maximum absorption wavelengths, color densities, fading rates, changes in the coloring degrees and durabilitys.
# (§3) The procedure was carried out in the same manner as in Example 42 but using 100 parts of AC1 and 133 parts of BC1, the sum of the amounts of AC1 and BC1 being 0.04% by weight. The obtained photochromic polymer was measured for its maximum absorption wavelength, initial color, color density, color-developing sensitivity, fading rate, durability and change in the coloring degree.
# (§4) The procedure was carried out in the same manner as in Example 83 but using the known chromene compounds shown in Table 6 instead of the chromene compound used in Example 83. […]
row,λ max [nm],Structure (SMILES)
1,450,"C1=CC2(CC3CCC2C3)Oc2c1ccc1ccccc21 (centres unmarked) [Compound C1, Spiro(norbornane-2,2'-(2H)benzo(h)chromene), reference compound]"
2,458,"CCOC(=O)c1c2c(c3ccccc3c1C)OC(c1ccccc1)(c1ccccc1)C=C2 [Compound C2, 5-Ethoxycarbonyl-6-methyl-2,2-diphenyl-2H-benzo(h) chromene, reference compound]"
3,480,"Cc1c2c(c3ccccc3c1C)OC(c1ccccc1)(c1ccccc1)C=C2 [Compound C3, 5,6-Dimethyl-2,2-diphenyl-2H-benzo(h)chromene, reference compound]"
4,432,"C1=CC(c2ccccc2)(c2ccccc2)Oc2ccc3ccccc3c21 [Compound C4, 3,3-Diphenyl-3H-benzo(f)chromene, reference compound]"

# Same assay, conditions: chromene composition, or other chromene C1-C4, 120 seconds; Table 6
row,Color density ε(120)-ε(0),Structure (SMILES)
1,1.0,"C1=CC2(CC3CCC2C3)Oc2c1ccc1ccccc21 (centres unmarked) [Compound C1, Spiro(norbornane-2,2'-(2H)benzo(h)chromene), reference compound]"
2,0.9,"CCOC(=O)c1c2c(c3ccccc3c1C)OC(c1ccccc1)(c1ccccc1)C=C2 [Compound C2, 5-Ethoxycarbonyl-6-methyl-2,2-diphenyl-2H-benzo(h) chromene, reference compound]"
3,1.0,"Cc1c2c(c3ccccc3c1C)OC(c1ccccc1)(c1ccccc1)C=C2 [Compound C3, 5,6-Dimethyl-2,2-diphenyl-2H-benzo(h)chromene, reference compound]"
4,0.5,"C1=CC(c2ccccc2)(c2ccccc2)Oc2ccc3ccccc3c21 [Compound C4, 3,3-Diphenyl-3H-benzo(f)chromene, reference compound]"

# Same assay, conditions: chromene composition, or other chromene C1-C4, non-irradiated; Table 6
row,Initial color ε(0),Structure (SMILES)
1,0.01,"C1=CC2(CC3CCC2C3)Oc2c1ccc1ccccc21 (centres unmarked) [Compound C1, Spiro(norbornane-2,2'-(2H)benzo(h)chromene), reference compound]"
2,0.02,"CCOC(=O)c1c2c(c3ccccc3c1C)OC(c1ccccc1)(c1ccccc1)C=C2 [Compound C2, 5-Ethoxycarbonyl-6-methyl-2,2-diphenyl-2H-benzo(h) chromene, reference compound]"
3,0.01,"Cc1c2c(c3ccccc3c1C)OC(c1ccccc1)(c1ccccc1)C=C2 [Compound C3, 5,6-Dimethyl-2,2-diphenyl-2H-benzo(h)chromene, reference compound]"
4,0.01,"C1=CC(c2ccccc2)(c2ccccc2)Oc2ccc3ccccc3c21 [Compound C4, 3,3-Diphenyl-3H-benzo(f)chromene, reference compound]"

# Same assay, conditions: chromene composition, or other chromene C1-C4; Table 6
row,Structure (SMILES),Fading rate t1/2 [min]
1,"C1=CC2(CC3CCC2C3)Oc2c1ccc1ccccc21 (centres unmarked) [Compound C1, Spiro(norbornane-2,2'-(2H)benzo(h)chromene), reference compound]",> 10
2,"CCOC(=O)c1c2c(c3ccccc3c1C)OC(c1ccccc1)(c1ccccc1)C=C2 [Compound C2, 5-Ethoxycarbonyl-6-methyl-2,2-diphenyl-2H-benzo(h) chromene, reference compound]",4.0
3,"Cc1c2c(c3ccccc3c1C)OC(c1ccccc1)(c1ccccc1)C=C2 [Compound C3, 5,6-Dimethyl-2,2-diphenyl-2H-benzo(h)chromene, reference compound]",10
4,"C1=CC(c2ccccc2)(c2ccccc2)Oc2ccc3ccccc3c21 [Compound C4, 3,3-Diphenyl-3H-benzo(f)chromene, reference compound]",1.0

# Same assay, conditions: saturated color density/xenon irradiation time; Table 6
row,Structure (SMILES),Color-developing sensitivity
1,"C1=CC2(CC3CCC2C3)Oc2c1ccc1ccccc21 (centres unmarked) [Compound C1, Spiro(norbornane-2,2'-(2H)benzo(h)chromene), reference compound]",0.2 -/min.
2,"CCOC(=O)c1c2c(c3ccccc3c1C)OC(c1ccccc1)(c1ccccc1)C=C2 [Compound C2, 5-Ethoxycarbonyl-6-methyl-2,2-diphenyl-2H-benzo(h) chromene, reference compound]",0.2 -/min.
3,"Cc1c2c(c3ccccc3c1C)OC(c1ccccc1)(c1ccccc1)C=C2 [Compound C3, 5,6-Dimethyl-2,2-diphenyl-2H-benzo(h)chromene, reference compound]",0.2 -/min.
4,"C1=CC(c2ccccc2)(c2ccccc2)Oc2ccc3ccccc3c21 [Compound C4, 3,3-Diphenyl-3H-benzo(f)chromene, reference compound]",0.2 -/min.

# Same assay, conditions: single chromene compound 0.04% by weight in polymer, 20° C.; Table 5
Maximum absorption wavelength λmax [nm],Structure (SMILES),Fading rate t1/2 [min]
492,"COc1ccc(C2(c3ccc(OC)cc3)C=Cc3ccc4ccccc4c3O2)cc1 [a, reference compound]",> 30
488,"CCOC(=O)C1=CC(c2ccccc2)(c2ccccc2)Oc2c1cc(C)c1ccccc21 [b, reference compound]",14
484,"Cc1cc2ccccc2c2c1C=CC(c1ccccc1)(c1ccccc1)O2 [c, reference compound]",20
452,"C1=CC2(Oc3c1ccc1ccccc31)C1CCCC2CCC1 (centres unmarked) [d, reference compound]",11
446,"CCOC(=O)c1c2c(c3ccccc3c1C)OC1(C=C2)C2CCCC1CCC2 (centres unmarked) [f, reference compound]",4.1

# Second part, the molecule before the results:
Structure (SMILES),Maximum absorption wavelength λmax [nm],Fading rate t1/2 [min]
CCCc1cc2c(CC)cc(OCC)cc2c2c1C=CC(c1ccc(OC)cc1)(c1cccs1)O2 (centres unmarked) [Compound 40],524,5.2
COc1ccc(C2(c3ccco3)C=Cc3c(C)cc4c(F)ccc(C)c4c3O2)cc1 (centres unmarked) [Compound 41],510,6.3

# Same assay, conditions: single chromene compound 0.04% by weight in polymer, 120 seconds, 20° C.; Table 5
row,Color density ε(120)-ε(0),Structure (SMILES)
1,1.3,"COc1ccc(C2(c3ccc(OC)cc3)C=Cc3ccc4ccccc4c3O2)cc1 [a, reference compound]"
2,1.2,"CCOC(=O)C1=CC(c2ccccc2)(c2ccccc2)Oc2c1cc(C)c1ccccc21 [b, reference compound]"
3,1.3,"Cc1cc2ccccc2c2c1C=CC(c1ccccc1)(c1ccccc1)O2 [c, reference compound]"
4,1.0,"C1=CC2(Oc3c1ccc1ccccc31)C1CCCC2CCC1 (centres unmarked) [d, reference compound]"
5,0.6,"CCOC(=O)c1c2c(c3ccccc3c1C)OC1(C=C2)C2CCCC1CCC2 (centres unmarked) [f, reference compound]"

# The next lines start with the molecule.
row,Structure (SMILES),Color density ε(120)-ε(0)
1,CCCc1cc2c(CC)cc(OCC)cc2c2c1C=CC(c1ccc(OC)cc1)(c1cccs1)O2 (centres unmarked) [Compound 40],0.9
2,COc1ccc(C2(c3ccco3)C=Cc3c(C)cc4c(F)ccc(C)c4c3O2)cc1 (centres unmarked) [Compound 41],1.0

# Experiment: Aging promotion testing: sunlight 30 min / fading one hour cycles, 10 days (durability, coloring degree)
# Format: physicochemical
# Details: YI(10)-YI(0), single chromene compound in polymer, 10 days aging; Table 5
# Description: In order to promote the aging, furthermore, the following testing was conducted. That is, the obtained photochromic polymer was irradiated with sunlight for 30 minutes to develop color, and its color was permitted to fade for one hour in the light of a fluorescent lamp. This cycle was repeated three times a day for a total of 10 days.
# The photochromic properties before and after aged were evaluated by evaluating the color densities before and after aged. The initial color density (T0) and the color density (T30) ten days after the aging promotion testing were measured, and the durability was expressed as described below.
# Furthermore, the coloring degrees of before developing color were measured before and after aged by using a color difference meter (SM-4) manufactured by Suga Shikenki Co.
# 7 Coloring degree before being aged=YI(0).
# 8 Change in the coloring degree (ΔYI)=YI(10)-YI(0)
# YI(10): coloring degree after aged
# as §1, §2, §3, §4
# The obtained polymer (2 mm thick) was caused to develop color outdoors, and tones of the developed color were observed by eyes 30 seconds and 15 minutes after it was brought to the outdoors, and uniformity in the step of developing color was evaluated. […] Furthermore, the aging promoting testing was conducted in the same manner as in Example 42 to find a coloring degree (YI(0)) before aged and a change in the coloring degree (ΔY).
row,Change in the coloring degree ΔYI,Structure (SMILES)
1,2.5,"COc1ccc(C2(c3ccc(OC)cc3)C=Cc3ccc4ccccc4c3O2)cc1 [a, reference compound]"
2,6.5,"CCOC(=O)C1=CC(c2ccccc2)(c2ccccc2)Oc2c1cc(C)c1ccccc21 [b, reference compound]"
3,2.4,"Cc1cc2ccccc2c2c1C=CC(c1ccccc1)(c1ccccc1)O2 [c, reference compound]"
4,1.5,"C1=CC2(Oc3c1ccc1ccccc31)C1CCCC2CCC1 (centres unmarked) [d, reference compound]"
5,6.0,"CCOC(=O)c1c2c(c3ccccc3c1C)OC1(C=C2)C2CCCC1CCC2 (centres unmarked) [f, reference compound]"

# Further lines, the molecule ahead of its results:
row,Structure (SMILES),Change in the coloring degree ΔYI
1,CCCc1cc2c(CC)cc(OCC)cc2c2c1C=CC(c1ccc(OC)cc1)(c1cccs1)O2 (centres unmarked) [Compound 40],2.7
2,COc1ccc(C2(c3ccco3)C=Cc3c(C)cc4c(F)ccc(C)c4c3O2)cc1 (centres unmarked) [Compound 41],3.2

# Same assay, conditions: chromene composition, or other chromene C1-C4, 10 days aging; Table 6
Change in the coloring degree ΔYI,Durability [%],Structure (SMILES)
2.0,90,"C1=CC2(CC3CCC2C3)Oc2c1ccc1ccccc21 (centres unmarked) [Compound C1, Spiro(norbornane-2,2'-(2H)benzo(h)chromene), reference compound]"
4.0,95,"CCOC(=O)c1c2c(c3ccccc3c1C)OC(c1ccccc1)(c1ccccc1)C=C2 [Compound C2, 5-Ethoxycarbonyl-6-methyl-2,2-diphenyl-2H-benzo(h) chromene, reference compound]"
5.0,95,"Cc1c2c(c3ccccc3c1C)OC(c1ccccc1)(c1ccccc1)C=C2 [Compound C3, 5,6-Dimethyl-2,2-diphenyl-2H-benzo(h)chromene, reference compound]"
5.0,95,"C1=CC(c2ccccc2)(c2ccccc2)Oc2ccc3ccccc3c21 [Compound C4, 3,3-Diphenyl-3H-benzo(f)chromene, reference compound]"

# Same assay, conditions: single chromene compound in polymer, 10 days aging; Table 5
row,Light resistance (durability) [%],Structure (SMILES)
1,97,"COc1ccc(C2(c3ccc(OC)cc3)C=Cc3ccc4ccccc4c3O2)cc1 [a, reference compound]"
2,80,"CCOC(=O)C1=CC(c2ccccc2)(c2ccccc2)Oc2c1cc(C)c1ccccc21 [b, reference compound]"
3,96,"Cc1cc2ccccc2c2c1C=CC(c1ccccc1)(c1ccccc1)O2 [c, reference compound]"
4,98,"C1=CC2(Oc3c1ccc1ccccc31)C1CCCC2CCC1 (centres unmarked) [d, reference compound]"
5,96,"CCOC(=O)c1c2c(c3ccccc3c1C)OC1(C=C2)C2CCCC1CCC2 (centres unmarked) [f, reference compound]"

# The next lines start with the molecule.
row,Structure (SMILES),Light resistance (durability) [%]
1,CCCc1cc2c(CC)cc(OCC)cc2c2c1C=CC(c1ccc(OC)cc1)(c1cccs1)O2 (centres unmarked) [Compound 40],96
2,COc1ccc(C2(c3ccco3)C=Cc3c(C)cc4c(F)ccc(C)c4c3O2)cc1 (centres unmarked) [Compound 41],95

# Experiment: not given
# Details: prior-art compound, placed in a dark place after color development; cited from earlier work
row,Structure (SMILES),fading rate (in words)
1,C1=CC2(CC3CCC2C3)Oc2c1ccc1ccccc21 (centres unmarked) [(A)],slow fading rate
2,Cc1cc2ccccc2c2c1C=CC(c1ccccc1)(c1ccccc1)O2 [(C)],a fading rate nearly the same as that of the above-mentioned compound (A)
